*1 amine or outer side, *2 acyl side, *3 side chain or, on linkers, in order; H or OH if unused. Where a SMILES comes first, the peptide text is derived from it. Bridges are numbered along the chain shown (N, C = ends). [ ]: non-standard residue; d: D form. The star is where a group is joined. ξ: configuration not given here. Phe(3-CF3) = N[C@@H](Cc1cccc(C(F)(F)F)c1)C(=O)O; Ala(morpholin-4-yl) = N[C@@H](CN1CCOCC1)C(=O)O; Phe(4-COOH) = N[C@@H](Cc1ccc(C(=O)O)cc1)C(=O)O; Bip = N[C@@H](Cc1ccc(-c2ccccc2)cc1)C(=O)O; Phe(3-Me) = Cc1cccc(C[C@H](N)C(=O)O)c1; γGlu = O=C(O)[C@H](CCC(=O)[*:2])N[*:1]; NH(CH2)12COOH = O=C(O)CCCCCCCCCCCCN*; NMeAEEA = CN(CCOCCOCC(=O)[*:2])[*:1]; Val(3-OH) = CC(C)(O)[C@H](N)C(=O)O; 4Pal = N[C@@H](Cc1ccncc1)C(=O)O; Cha = N[C@@H](CC1CCCCC1)C(=O)O; Cit = NC(=O)NCCC[C@H](N)C(=O)O; Ile(3ξ) = CCC(C)[C@H](N)C(=O)O; Thr(3ξ) = CC(O)[C@H](N)C(=O)O; hSer = N[C@@H](CCO)C(=O)O; Carboxymethyl = O=C(O)C*; NMeA = CN[C@@H](C)C(=O)O; Orn = NCCC[C@H](N)C(=O)O; Aun = NCCCCCCCCCCC(=O)O; Dab = NCC[C@H](N)C(=O)O; Nva = CCC[C@H](N)C(=O)O; Dap = NC[C@H](N)C(=O)O; AEEA = NCCOCCOCC(=O)O
molecular target: T1, PD-1/PD-L1 interaction (PE-labeled human PD-L1-Ig binding to Jurkat cell line over-expressing human PD-1) (Homo sapiens, UniProt Q15116); assay: Jurkat-PD-1 Cell Binding High-Content Screening Assay (CBA); settings: Jurkat-hPD-1 cells, PE-labeled PD-L1-Ig 20 nM final; read-out: Jurkat HPD1 PDL1 IC50
T1 construct: expressed in transfected cells; host or cells: Jurkat
How it was run: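 Read-out: high-content imaging of cell-bound PE fluorescence, with Hoechst 33342 nuclear counterstain after paraformaldehyde fixation. Before labeled ligand (20 nM final, 1 h) was added, compound sat on the cells for 2 h at 37 °C in DMEM/10% FCS.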

T1 sequence (Q15116 25-288): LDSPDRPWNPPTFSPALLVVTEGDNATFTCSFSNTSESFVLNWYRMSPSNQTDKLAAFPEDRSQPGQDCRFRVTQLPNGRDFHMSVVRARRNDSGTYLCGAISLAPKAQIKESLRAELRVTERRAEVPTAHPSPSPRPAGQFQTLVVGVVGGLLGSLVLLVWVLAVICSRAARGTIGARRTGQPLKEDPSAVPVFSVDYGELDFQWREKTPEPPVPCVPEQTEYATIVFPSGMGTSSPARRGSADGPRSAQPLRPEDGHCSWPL

| IC50 [µM] | SMILES |
| --- | --- |
| 0.0437 | CC(C)C[C@@H]1NC(=O)[C@H](Cc2c[nH]c3ccccc23)NC(=O)[C@H](CC(=O)O)NC(=O)[C@H](Cc2ccc(C(=O)O)cc2)NC(=O)[C@H](Cc2ccc(OCC(=O)O)cc2)NC(=O)CSC[C@@H](C(=O)NCCOCCOCC(=O)NCCCCCCCCCCC(=O)O)NC(=O)[C@H](CCC(=O)O)NC(=O)[C@H](C(C)(C)O)NC(=O)[C@H](CC2CCCCC2)NC(=O)[C@H](CCN)NC(=O)[C@@H](CC(C)C)NC(=O)[C@H](C)N(C)C(=O)[C@H](C(C)C)NC(=O)[C@H](Cc2ccc(-c3ccccc3)cc2)NC1=O [Example 1114] ({CH2CO}-Y(Carboxymethyl)[Phe(4-COOH)]DWL[Bip]V[NMeA][dL][Dab][Cha][Val(3-OH)]EC[AEEA][Aun]-OH; thioether N-14) |
| 0.0855 | CC(C)C[C@H]1NC(=O)[C@H](C)N(C)C(=O)[C@H](Cc2ccc(OCC(=O)O)cc2)NC(=O)[C@H](Cc2ccc(-c3ccccc3)cc2)NC(=O)[C@H](Cc2ccc(OCC(=O)O)cc2)NC(=O)[C@H](Cc2c[nH]c3ccccc23)NC(=O)[C@H](CC(=O)O)NC(=O)[C@H](Cc2ccc(OCC(=O)O)cc2)NC(=O)[C@H]([C@@H](C)O)NC(=O)CSC[C@@H](C(=O)N[C@@H](CCN)C(=O)NCCOCCOCC(=O)NCCCCCCCCCCC(=O)O)NC(=O)[C@H]([C@@H](C)O)NC(=O)[C@H](C(C)C)NC(=O)[C@H](CC2CCCCC2)NC(=O)[C@H](CCC(=O)O)NC1=O [Example 1398] ({CH2CO}-TY(Carboxymethyl)DWY(Carboxymethyl)[Bip]Y(Carboxymethyl)[NMeA][dL]E[Cha]VTC[Dab][AEEA][Aun]-OH; thioether N-14) |
| 0.0085 | CCC(C)[C@@H]1NC(=O)[C@H](Cc2ccc(-c3ccccc3)cc2)NC(=O)[C@H](C(C)C)NC(=O)[C@H](Cc2c[nH]c3ccccc23)NC(=O)[C@H](CC(=O)O)NC(=O)[C@H](Cc2ccc(OCC(=O)O)cc2)NC(=O)[C@H](Cc2ccc(OCC(=O)O)cc2)NC(=O)CSC[C@@H](C(=O)N[C@H](CC(N)=O)C(=O)NCCCCCCCCCCC(=O)O)NC(=O)[C@H](CCCNC(N)=O)NC(=O)[C@H](C(C)C)NC(=O)[C@H](CC2CCCCC2)NC(=O)[C@H](CCN)NC(=O)[C@@H](CC(C)C)NC(=O)[C@H](C)N(C)C1=O (stereo partly drawn) [Example 2297] ({CH2CO}-Y(Carboxymethyl)Y(Carboxymethyl)DWV[Bip][Ile(3ξ)][NMeA][dL][Dab][Cha]V[Cit]C[dN][Aun]-OH; thioether N-14) |
| 0.0131 | CC(C)C[C@H]1NC(=O)[C@H](C)N(C)C(=O)[C@H](C(C)C)NC(=O)[C@H](Cc2ccc(-c3ccccc3)cc2)NC(=O)[C@H](C(C)C)NC(=O)[C@H](Cc2c[nH]c3ccccc23)NC(=O)[C@H](CC(=O)O)NC(=O)[C@H](Cc2ccc(OCC(=O)O)cc2)NC(=O)[C@H](Cc2ccc(OCC(=O)O)cc2)NC(=O)CSC[C@@H](C(=O)NCCOCCOCC(=O)NCCCCCCCCCCC(=O)O)NC(=O)[C@H](CO)NC(=O)[C@H](C(C)C)NC(=O)[C@H](CC2CCCCC2)NC(=O)[C@H](CCN)NC1=O [Example 2453] ({CH2CO}-Y(Carboxymethyl)Y(Carboxymethyl)DWV[Bip]V[NMeA][dL][Dab][Cha]VSC[AEEA][Aun]-OH; thioether N-14) |
| 0.0198 | CC(C)C[C@@H]1NC(=O)[C@H](Cc2c[nH]c3ccccc23)NC(=O)[C@H](CC(=O)O)NC(=O)[C@H](Cc2ccc(C(=O)O)cc2)NC(=O)[C@H](Cc2ccc(OCC(=O)O)cc2)NC(=O)CSC[C@@H](C(=O)N[C@@H](CCCNC(=N)N)C(=O)NCCCCCCCCCCC(=O)O)NC(=O)[C@H](CCCNC(N)=O)NC(=O)[C@H](C(C)C)NC(=O)[C@H](CC2CCCCC2)NC(=O)[C@H](CCN)NC(=O)[C@@H](CC(C)C)NC(=O)[C@H](C)N(C)C(=O)[C@H](C(C)C)NC(=O)[C@H](Cc2ccc(-c3ccccc3)cc2)NC1=O [Example 1100] ({CH2CO}-Y(Carboxymethyl)[Phe(4-COOH)]DWL[Bip]V[NMeA][dL][Dab][Cha]V[Cit]CR[Aun]-OH; thioether N-14) |
| 0.0363 | Cc1cccc(C[C@@H]2NC(=O)[C@H](CC(=O)O)NC(=O)[C@H](Cc3ccc(OCC(=O)O)cc3)NC(=O)[C@H](C(C)O)NC(=O)CSC[C@@H](C(=O)N(C)CCOCCOCC(=O)NCCCCCCCCCCC(=O)O)NC(=O)[C@H](CCO)NC(=O)[C@H](C(C)C)NC(=O)[C@H](CC3CCCCC3)NC(=O)[C@H](CCN)NC(=O)[C@@H](CC(C)C)NC(=O)[C@H](C)N(C)C(=O)[C@H](C(C)C)NC(=O)[C@H](Cc3ccc(-c4ccccc4)cc3)NC(=O)[C@H](C(C)C)NC2=O)c1 (stereo partly drawn) [Example 2364] ({CH2CO}-[Thr(3ξ)]Y(Carboxymethyl)D[Phe(3-Me)]V[Bip]V[NMeA][dL][Dab][Cha]V[hSer]C[NMeAEEA][Aun]-OH; thioether N-14) |
| 0.0126 | CC(=O)NCCC[C@@H]1NC(=O)[C@H](C(C)C)NC(=O)[C@H](CC2CCCCC2)NC(=O)[C@H](CCN)NC(=O)[C@@H](CC(C)C)NC(=O)[C@H](C)N(C)C(=O)[C@H](C(C)C)NC(=O)[C@H](Cc2ccc(-c3ccccc3)cc2)NC(=O)[C@H](CC(C)C)NC(=O)[C@H](Cc2c[nH]c3ccccc23)NC(=O)[C@H](CC(=O)O)NC(=O)[C@H](Cc2ccncc2)NC(=O)[C@H](Cc2ccc(OCC(=O)O)cc2)NC(=O)CSC[C@@H](C(=O)NCC(=O)NCCOCCOCC(=O)N[C@@H](CN)C(=O)NCCCCCCCCCCC(=O)O)NC1=O [Example 2169] ({CH2CO}-Y(Carboxymethyl)[4Pal]DWL[Bip]V[NMeA][dL][Dab][Cha]V[Orn](Ac)CG[AEEA][Dap][Aun]-OH; thioether N-14) |
| 0.0113 | CC(=O)NCCCC[C@@H]1NC(=O)[C@H](Cc2ccc(-c3ccccc3)cc2)NC(=O)[C@H](C(C)C)NC(=O)[C@H](Cc2c[nH]c3ccccc23)NC(=O)[C@H](CC(=O)O)NC(=O)[C@H](Cc2ccc(OCC(=O)O)cc2)NC(=O)[C@H](Cc2ccc(OCC(=O)O)cc2)NC(=O)CSC[C@@H](C(=O)NCCOCCOCC(=O)NCCCCCCCCCCC(=O)O)NC(=O)[C@H](CCO)NC(=O)[C@H](C(C)C)NC(=O)[C@H](CC2CCCCC2)NC(=O)[C@H](CCN)NC(=O)[C@@H](CC(C)C)NC(=O)[C@H](C)N(C)C1=O [Example 2316] ({CH2CO}-Y(Carboxymethyl)Y(Carboxymethyl)DWV[Bip]K(Ac)[NMeA][dL][Dab][Cha]V[hSer]C[AEEA][Aun]-OH; thioether N-14) |
| 0.0488 | CC(C)C[C@H]1NC(=O)[C@H](C)N(C)C(=O)[C@H](CCCNC(N)=O)NC(=O)[C@H](Cc2ccc(-c3ccccc3)cc2)NC(=O)[C@H](Cc2ccc(C(=O)O)cc2)NC(=O)[C@H](Cc2cccc(C(F)(F)F)c2)NC(=O)[C@H](CC(=O)O)NC(=O)[C@H](Cc2ccc(OCC(=O)O)cc2)NC(=O)[C@H](CN2CCOCC2)NC(=O)CSC[C@@H](C(=O)N[C@@H](CCN)C(=O)NCCOCCOCC(=O)N[C@@H](CCC(=O)NCCOCCOCC(=O)NCCCCCCCCCCCCC(=O)O)C(=O)O)NC(=O)[C@H](CC(=O)O)NC(=O)[C@H](C(C)(C)O)NC(=O)[C@H](CC2CCCCC2)NC(=O)[C@H](CCN)NC1=O [Example 1175] ({CH2CO}-[Ala(morpholin-4-yl)]Y(Carboxymethyl)D[Phe(3-CF3)][Phe(4-COOH)][Bip][Cit][NMeA][dL][Dab][Cha][Val(3-OH)]DC[Dab][AEEA][γGlu][AEEA]-{NH(CH2)12COOH}; thioether N-14) |
| 0.0177 | CCC(C)[C@@H]1NC(=O)[C@H](Cc2ccc(-c3ccccc3)cc2)NC(=O)[C@H](C(C)C)NC(=O)[C@H](Cc2c[nH]c3ccccc23)NC(=O)[C@H](CC(=O)O)NC(=O)[C@H](Cc2ccc(C(=O)O)cc2)NC(=O)[C@H](Cc2ccc(OCC(=O)O)cc2)NC(=O)CSC[C@@H](C(=O)N[C@@H](CCCN)C(=O)NCCOCCOCC(=O)NCCCCCCCCCCC(=O)O)NC(=O)[C@H](C(C)O)NC(=O)[C@H](C(C)C)NC(=O)[C@H](CC2CCCCC2)NC(=O)[C@H](CCN)NC(=O)[C@@H](CC(C)C)NC(=O)[C@H](C)N(C)C1=O (stereo partly drawn) [Example 2149] ({CH2CO}-Y(Carboxymethyl)[Phe(4-COOH)]DWV[Bip][Ile(3ξ)][NMeA][dL][Dab][Cha]V[Thr(3ξ)]C[Orn][AEEA][Aun]-OH; thioether N-14) |
| 0.0381 | CCC(C)[C@@H]1NC(=O)[C@H](Cc2ccc(-c3ccccc3)cc2)NC(=O)[C@H](CC(C)C)NC(=O)[C@H](Cc2c[nH]c3ccccc23)NC(=O)[C@H](CC(=O)O)NC(=O)[C@H](Cc2ccc(OCC(=O)O)cc2)NC(=O)[C@H](Cc2ccncc2)NC(=O)CSC[C@@H](C(=O)NCCOCCOCC(=O)N[C@@H](CCCN)C(=O)NCCCCCCCCCCC(=O)O)NC(=O)[C@H](CO)NC(=O)[C@H](C(C)C)NC(=O)[C@H](CC(C)C)NC(=O)[C@H](CC(N)=O)NC(=O)[C@@H](CC(C)C)NC(=O)[C@H](C)N(C)C1=O (stereo partly drawn) [Example 2062] ({CH2CO}-[4Pal]Y(Carboxymethyl)DWL[Bip][Ile(3ξ)][NMeA][dL]NLVSC[AEEA][Orn][Aun]-OH; thioether N-14) |

same assay, conditions: PE-labeled PD-L1-Ig 20 nM final, Jurkat-hPD-1 cells; read-out: Jurkat HPD1 PDL1 IC50

| IC50 [µM] | SMILES |
| --- | --- |
| 0.0241 | CCC[C@@H]1NC(=O)CSC[C@@H](C(=O)N[C@@H](CCN)C(=O)NCCOCCOCC(=O)NCCCCCCCCCCC(=O)O)NC(=O)[C@H](CCC(=O)O)NC(=O)[C@H](CO)NC(=O)[C@H](CC2CCCCC2)NC(=O)[C@H](CCN)NC(=O)[C@@H](CC(C)C)NC(=O)[C@H](C)N(C)C(=O)[C@H](Cc2ccc(OCC(=O)O)cc2)NC(=O)[C@H](Cc2ccc(-c3ccccc3)cc2)NC(=O)[C@H](Cc2ccc(OCC(=O)O)cc2)NC(=O)[C@H](Cc2cccc(C)c2)NC(=O)[C@H](CC(=O)O)NC(=O)[C@H](Cc2ccc(C(=O)O)cc2)NC1=O [Example 2561] ({CH2CO}-[Nva][Phe(4-COOH)]D[Phe(3-Me)]Y(Carboxymethyl)[Bip]Y(Carboxymethyl)[NMeA][dL][Dab][Cha]SEC[Dab][AEEA][Aun]-OH; thioether N-14) |

Source: patent US20260070945A1, “MACROCYCLIC IMMUNOMODULATORS” (Bristol-Myers Squibb Company, priority 2022, published 2026)
